In patent US4873342A, “Dipeptide derivative and synthesis and use thereof” (Suntory Limited, priority 1985, dated 1989):
Blank lines part the entries; values can stand above or below the compound they belong to. Peptide text beside a SMILES is read from it. * marks the point of attachment. Hydrocinnamoyl = O=C(CCc1ccccc1)*; PhAc = O=C(Cc1ccccc1)*

Tests used:
[1] = system: Experimental Amnesia caused in Rats by Scopolamine; assay: Preventive effect against experimental amnesia caused in rats by scopolamine (passive avoidance, intraperitoneal administration); assay type: in vivo, Wister male rats; details: for No. of amnesic rats/No. of rats tested / Percentage amnesia / Avoidance time After 24 hrs. / Avoidance time After 48 hrs.: i.p., scopolamine 3 mg/kg i.p.
Procedure: Several of the anti-prolyl endopeptidase compounds according to the present invention were checked for their ability to prevent the inhibition of long-term memory fixation by scopolamine. […] One hour after the administration, electric shocks were applied to the rats so that they would acquire passive avoidance learning. Immediately thereafter, scopolamine was administered intraperitoneally to each rat in an amount of 3 mg per kg of body weight.
The results of the test were assessed both 24 hours and 48 hours after the administration of scopolamine. The number of amnesic rats and of sound rats was counted for each of the control group (rats to which the test compounds were not administered but to which only scopolamine and physiological saline were administered intraperitoneally) and the treated group (rats to which both the test compound and scopolamine were administered).

prolyl endopeptidase = prolyl endopeptidase (Elizabethkingia meningoseptica, UniProt P27028); assay: Measurement of anti-prolyl endopeptidase activity (decomposition of Z-glycyl-prolyl-β-naphthylamide); assay type: biochemical; details: substrate Z-glycyl-proline-β-naphthylamide, phosphate buffer pH 7.0
Procedure: The method of Yoshimoto and Tsuru (T. Yoshimoto and D. Tsuru, Agr. Biol. Chem. 42, 2417, 1978) was used to measure the anti-prolyl endopeptidase activities of several compounds according to the present invention. A mixture of 0.0025M Z--glycyl--proline--β--naphthylamide (0.25 ml), 0.1M phosphate buffer (pH 7.0; 0.99 ml) and a solution of a particular anti-prolyl endopeptidase compound (0.01 ml) was incubated in a test tube at 37° C. for 3 minutes. Thereafter […] of a solution of prolyl endopeptidase (0.2 U/ml) was added and the mixture was heated at 35° C. for 10 minutes. After the reaction, 2.0 ml of Triton x-100 in 1M acetate buffer (pH 4.0) was added to the reaction mixture until the final concentration of the surfactant was 10%. The mixture was left at a room temperature for 15 minutes and the absorbance (a) at 410 nm was measured.
A sample for a blind test was prepared by using the buffer solely in place of the anti-prolyl endopeptidase compound and its absorbance (b) was also measured. The percent inhibition of prolyl endopeptidase was calculated by the formula: [(b-a)/b]×100, and the amount of a specific compound needed to achieve 50% inhibition (IC50) was determined.

CDF-1 strain male mice = assay: Acute toxicity test in mice; assay type: in vivo; details: i.p. in DMSO, five mice per group, observed 24 and 48 hours after administration
Procedure: The compounds of the present invention were checked for their acute toxicity in CDF-1 strain male mice (body weight: 27.2 to 30.1 g) purchased from Awazu Laboratory Animals Co., Ltd.
Test samples were prepared by dissolving the respective compounds in DMSO, and a portion (0.1 ml) of the so conditioned test sample was administered intraperitoneally to each of the mice used. Each of the treated groups consisted of five mice. After 24 hours and 48 hours had passed from the time of administration, respectively, the mice were observed.

Male mice of ddY-strain = assay: Anti-hypoxia effect (survival time at 180 mmHg); assay type: in vivo; details: for No. of survival/used, Drug / Survival time, Drug (Mean ± S.E.): mice, 180 mmHg
Procedure: Male mice of ddY-strain weighing 25 to 34 g were allotted to groups consisting of 7 to 10 animals each. Each compound to be tested was suspended in physiological saline with 2 to 3 drops of Tween 80® added thereto, and administered intraperitoneally at the rate of 0.1 ml per 10 g of body weight.
Each mouse was put into a 1 l desiccator 30 minutes after the administration, and the pressure in the desiccator was reduced to 180 mmHg by means of a vacuum pump. The period from the start of pressure reduction to the respiratory arrest of the mouse was assumed to be the survival time (minute) of the mouse.
If the mouse survived more than 15 minutes, its survival time was recorded as being 15 minutes. A student's t-test was adopted for the significance analysis.

Sequence of prolyl endopeptidase (P27028 21-705): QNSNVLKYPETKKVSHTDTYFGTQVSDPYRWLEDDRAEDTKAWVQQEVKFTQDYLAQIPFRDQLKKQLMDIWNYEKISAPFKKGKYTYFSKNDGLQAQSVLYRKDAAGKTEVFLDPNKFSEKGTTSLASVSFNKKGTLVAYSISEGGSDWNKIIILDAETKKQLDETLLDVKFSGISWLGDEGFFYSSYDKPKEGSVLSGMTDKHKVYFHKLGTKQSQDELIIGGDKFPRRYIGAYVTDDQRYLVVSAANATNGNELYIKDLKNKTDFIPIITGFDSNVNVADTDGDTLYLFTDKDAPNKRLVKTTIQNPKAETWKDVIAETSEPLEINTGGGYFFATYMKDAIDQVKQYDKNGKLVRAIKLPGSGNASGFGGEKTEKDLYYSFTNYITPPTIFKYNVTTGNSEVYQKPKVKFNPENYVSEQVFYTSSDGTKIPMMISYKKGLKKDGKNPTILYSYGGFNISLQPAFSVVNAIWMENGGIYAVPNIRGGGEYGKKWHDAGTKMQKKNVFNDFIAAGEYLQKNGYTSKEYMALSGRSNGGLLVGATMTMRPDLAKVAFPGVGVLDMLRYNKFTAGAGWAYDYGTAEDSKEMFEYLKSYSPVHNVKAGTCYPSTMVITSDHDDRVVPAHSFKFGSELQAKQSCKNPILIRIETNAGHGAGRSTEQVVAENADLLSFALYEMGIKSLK

IC50 (amount needed to achieve 50% inhibition of prolyl endopeptidase) (prolyl endopeptidase): 0.3 ng/test tube
SMILES: CC(C)CC(NC(=O)CCCc1ccccc1)C(=O)N1CCCC1C=O (stereo not shown) [SUAM 1115, N--(4-phenyl)butanoyl--Leu--Pro--CHO]
No. of amnesic rats/No. of rats tested ([1]; 25 μg/kg): 0/10
Percentage amnesia ([1]; 25 μg/kg): 0
Avoidance time After 24 hrs. ([1]; 25 μg/kg): 300.0 s
Avoidance time After 48 hrs. ([1]; 25 μg/kg): 300.0 s
anti-amnesic effect (in words) ([1]; 0.025 mg/kg administered): very strong effects
No. of amnesic rats/No. of rats tested ([1]; 100 μg/kg): 0/10
Percentage amnesia ([1]; 100 μg/kg): 0
Avoidance time After 24 hrs. ([1]; 100 μg/kg): 300.0 s
Avoidance time After 48 hrs. ([1]; 100 μg/kg): 300.0 s
anti-amnesic effect (in words) ([1]; 0.1 mg/kg administered): very strong effects
No. of amnesic rats/No. of rats tested ([1]; 250 μg/kg): 3/10
Percentage amnesia ([1]; 250 μg/kg): 30
Avoidance time After 24 hrs. ([1]; 250 μg/kg): 193.2 s
Avoidance time After 48 hrs. ([1]; 250 μg/kg): 217.1 s
anti-amnesic effect (in words) ([1]; administration of 1 mg/kg): did not manifest the desired effect

IC50 (amount needed to achieve 50% inhibition of prolyl endopeptidase) (prolyl endopeptidase): 0.2 ng/test tube
SMILES: CC(C)[C@H](NC(=O)CCCc1ccccc1)C(=O)N1CCC[C@H]1C=O [SUAM 1117, N--(4-phenyl)butanoyl--Val--Pro--CHO]
No. of amnesic rats/No. of rats tested ([1]; 25 μg/kg): 1/10
Percentage amnesia ([1]; 25 μg/kg): 10
Avoidance time After 24 hrs. ([1]; 25 μg/kg): 300.0 s
Avoidance time After 48 hrs. ([1]; 25 μg/kg): 289.5 s
anti-amnesic effect (in words) ([1]; 0.025 mg/kg administered): very strong effects
No. of amnesic rats/No. of rats tested ([1]; 100 μg/kg): 0/10
Percentage amnesia ([1]; 100 μg/kg): 0
Avoidance time After 24 hrs. ([1]; 100 μg/kg): 300.0 s
Avoidance time After 48 hrs. ([1]; 100 μg/kg): 300.0 s
anti-amnesic effect (in words) ([1]; 0.1 mg/kg administered): very strong effects
No. of amnesic rats/No. of rats tested ([1]; 250 μg/kg): 4/10
Percentage amnesia ([1]; 250 μg/kg): 40
Avoidance time After 24 hrs. ([1]; 250 μg/kg): 232.0 s
Avoidance time After 48 hrs. ([1]; 250 μg/kg): 194.4 s
No. of amnesic rats/No. of rats tested ([1]; 1 mg/kg): 6/10
Percentage amnesia ([1]; 1 mg/kg): 60
Avoidance time After 24 hrs. ([1]; 1 mg/kg): 161.6 s
Avoidance time After 48 hrs. ([1]; 1 mg/kg): 125.0 s
anti-amnesic effect (in words) ([1]; administration of 1 mg/kg): did not manifest the desired effect

IC50 (amount needed to achieve 50% inhibition of prolyl endopeptidase) (prolyl endopeptidase): 1.0 ng/test tube
SMILES: O=C[C@@H]1CCCN1C(=O)[C@@H]1CCCN1C(=O)Cc1ccccc1 [SUAM 1336, N--(2-phenyl)acetyl--Pro--Pro--CHO] (PhAc-Pro-Pro-aldehyde)

IC50 (amount needed to achieve 50% inhibition of prolyl endopeptidase) (prolyl endopeptidase): 0.4 ng/test tube
SMILES: O=C[C@@H]1CCCN1C(=O)[C@@H]1CCCN1C(=O)CCc1ccccc1 [SUAM 1339, N--(3-phenyl)propionyl--Pro--Pro--CHO] (Hydrocinnamoyl-Pro-Pro-aldehyde)

IC50 (amount needed to achieve 50% inhibition of prolyl endopeptidase) (prolyl endopeptidase): 0.2 ng/test tube
SMILES: O=C[C@@H]1CCCN1C(=O)[C@@H]1CCCN1C(=O)CCCCc1ccccc1 [SUAM 1342, N--(5-phenyl)pentanoyl--Pro--Pro--CHO]

IC50 (amount needed to achieve 50% inhibition of prolyl endopeptidase) (prolyl endopeptidase): 0.7 ng/test tube
SMILES: CSCC[C@H](NC(=O)CCCc1ccccc1)C(=O)N1CCC[C@H]1C=O [SUAM 1345, N--(4-phenyl)butanoyl--Met--Pro--CHO]

The next lines start with the compound.

SMILES: C[C@H](NC(=O)CCCc1ccccc1)C(=O)N1CCC[C@H]1C=O [SUAM 1110, N--(4-phenyl)butanoyl--Ala--Pro--CHO]
anti-amnesic effect (in words) ([1]; 0.025 mg/kg administered): very strong effects
anti-amnesic effect (in words) ([1]; 0.1 mg/kg administered): very strong effects
No. of amnesic rats/No. of rats tested ([1]; 250 μg/kg): 0/10
Percentage amnesia ([1]; 250 μg/kg): 0
Avoidance time After 24 hrs. ([1]; 250 μg/kg): 300.0 s
Avoidance time After 48 hrs. ([1]; 250 μg/kg): 300.0 s
No. of amnesic rats/No. of rats tested ([1]; 1 mg/kg): 1/10
Percentage amnesia ([1]; 1 mg/kg): 10
Avoidance time After 24 hrs. ([1]; 1 mg/kg): 272.8 s
Avoidance time After 48 hrs. ([1]; 1 mg/kg): 271.2 s
anti-amnesic effect (in words) ([1]; administration of 1 mg/kg): did not manifest the desired effect

SMILES: O=C[C@@H]1CCCN1C(=O)[C@@H]1CCCN1C(=O)CCCc1ccccc1 [SUAM 1231, N--(4-phenyl)butanoyl--Pro--Pro--CHO]
Average-Dose at which the mice remained sound and showed no sign of intoxication (CDF-1 strain male mice): 634.6 mg/kg
No. of amnesic rats/No. of rats tested ([1]; 20 μg/kg): 0/10
Percentage amnesia ([1]; 20 μg/kg): 0
Avoidance time After 24 hrs. ([1]; 20 μg/kg): 300.0 s
anti-amnesic effect (in words) ([1]; at 0.020 mg/kg): strong effect
IC50 (amount needed to achieve 50% inhibition of prolyl endopeptidase) (prolyl endopeptidase): 0.2 ng/test tube

SMILES: O=C[C@@H]1CCCN1C(=O)[C@H](Cc1ccccc1)NC(=O)CCCc1ccccc1 [SUAM 1234, N--(4-phenyl)butanoyl--Phe--Pro--CHO]
IC50 (amount needed to achieve 50% inhibition of prolyl endopeptidase) (prolyl endopeptidase): 0.3 ng/test tube
Survival time Ratio (Drug/Control) (Male mice of ddY-strain; 1 mg/kg i.p.): 1.24
No. of survival/used, Drug (Male mice of ddY-strain; 1 mg/kg i.p.): 0/7
Survival time, Drug (Mean ± S.E.) (Male mice of ddY-strain; 1 mg/kg i.p., control 2.32 ± 0.11, *P < 0.05): 2.88 ± 0.17 min
Survival time Ratio (Drug/Control) (Male mice of ddY-strain; 10 mg/kg i.p.): 1.09
No. of survival/used, Drug (Male mice of ddY-strain; 10 mg/kg i.p.): 0/7
Survival time, Drug (Mean ± S.E.) (Male mice of ddY-strain; 10 mg/kg i.p., control 2.25 ± 0.15): 2.45 min

SMILES: CCCCC(NC(=O)CCCc1ccccc1)C(=O)N1CCCC1C=O (stereo not shown) [SUAM 1333, N--(4-phenyl)butanoyl--norLeu--Pro--CHO]
Average-Dose at which the mice remained sound and showed no sign of intoxication (CDF-1 strain male mice): 707.7 mg/kg
No. of amnesic rats/No. of rats tested ([1]; 20 μg/kg): 0/10
Percentage amnesia ([1]; 20 μg/kg): 0
Avoidance time After 24 hrs. ([1]; 20 μg/kg): 300.0 s
anti-amnesic effect (in words) ([1]; at 0.020 mg/kg): strong effect
IC50 (amount needed to achieve 50% inhibition of prolyl endopeptidase) (prolyl endopeptidase): 0.4 ng/test tube
